Calls of active or inactive are those of the source. The calls are words filed in the database; no cut-off is given here.
Assays:
NCI-H520 [1] = assay: Cytotoxicity against human NCI-H520 cells assessed as reduction in cell viability after 48 hrs by MTT assay; format: functional, cell-based; conditions: NCI-H520, 48 h
NCI-H446 [2] = assay: Cytotoxicity against human NCI-H446 cells assessed as reduction in cell viability after 48 hrs by MTT assay; format: functional, cell-based; conditions: NCI-H446, 48 h
NCI-H520 [3] = assay: Cytotoxicity against human NCI-H520 cells assessed as reduction in cell viability at 0.3 to 0.6 uM after 48 hrs in presence of CPT by MTT assay; format: functional, cell-based
NCI-H460 [4] = assay: Cytotoxicity against human NCI-H460 cells assessed as reduction in cell viability by measuring combinantion index at 0.3 to 0.6 uM after 48 hrs in presence of CPT by MTT assay; format: functional
NCI-H1299 [5] = assay: Cytotoxicity against human NCI-H1299 cells assessed as reduction in cell viability at 0.3 to 0.6 uM after 48 hrs in presence of HCPT by MTT assay; format: functional, cell-based
NCI-H446 [6] = assay: Cytotoxicity against human NCI-H446 cells assessed as reduction in cell viability at 0.3 to 0.6 uM after 48 hrs in presence of HCPT by MTT assay; format: functional, cell-based
NCI-H446 [7] = assay: Induction of apoptosis in human NCI-H446 cells at 0.6 uM up to 20 mins in presence of HCPT by acridine orange/ ethidium bromide staining based fluorescence microscopic method relative to control; format: functional
NCI-H460 [8] = assay: Induction of apoptosis in human NCI-H460 cells at 0.6 uM after 24 to 48 hrs by Annexin-V FITC/propidium iodide staining based flow cytometry; format: functional, cell-based
NCI-H1299 [9] = assay: Induction of apoptosis in human NCI-H1299 cells assessed as pro-apoptotic cells at 0.3 uM after 48 hrs in presence of CPT by Annexin-V FITC/propidium iodide staining based flow cytometry; format: functional
NCI-H446 [10] = assay: Induction of apoptosis in human NCI-H446 cells at 0.6 uM in presence of CPT by Annexin-V FITC/propidium iodide staining based flow cytometry; format: functional, cell-based; conditions: TDE = time-dependent effect
NCI-H460 [11] = assay: Induction of apoptosis in human NCI-H460 cells at 0.6 uM in presence of HCPT by Annexin-V FITC/propidium iodide staining based flow cytometry; format: functional, cell-based; conditions: TDE = time-dependent effect
NCI-H1299 [12] = assay: Induction of apoptosis in human NCI-H1299 cells assessed as activation of caspase-3/7 at 0.3 uM after 48 hrs by luciferase reporter gene assay; format: functional, cell-based
NCI-H460 [13] = assay: Induction of apoptosis in human NCI-H460 cells assessed as activation of caspase-3/7 at 0.6 uM after 48 hrs by luciferase reporter gene assay; format: functional, cell-based
NCI-H446 [14] = assay: Induction of apoptosis in human NCI-H446 cells assessed as activation of caspase-3/7 at 0.6 uM after 48 hrs in presence of HCPT by luciferase reporter gene assay; format: functional, cell-based
NCI-H460 [15] = assay: Induction of apoptosis in human NCI-H460 cells assessed as activation of caspase-3/7 at 0.6 uM after 48 hrs in presence of HCPT by luciferase reporter gene assay; format: functional, cell-based
NCI-H460 [16] = assay: Induction of apoptosis in human NCI-H460 cells assessed as increase in caspase-9 expression at 0.6 uM in presence of CPT by Western blot method; format: functional, cell-based
NCI-H446 [17] = assay: Induction of apoptosis in human NCI-H446 cells assessed as increase in caspase-9 expression at 0.6 uM in presence of CPT by Western blot method; format: functional, cell-based
NCI-H446 [18] = assay: Induction of apoptosis in human NCI-H446 cells assessed as increase in cleaved PARP expression at 0.6 uM in presence of CPT by Western blot method; format: functional, cell-based
NCI-H446 [19] = assay: Induction of apoptosis in human NCI-H446 cells assessed as increase in Bax expression at 0.6 uM in presence of CPT by Western blot method; format: functional, cell-based
NCI-H446 [20] = assay: Induction of apoptosis in human NCI-H446 cells assessed as downregulation of Bcl-XL expression at 0.6 uM in presence of CPT by Western blot method; format: functional, cell-based
NCI-H1299 [21] = assay: Decrease in p38 MAPK protein expression in human NCI-H1299 cells at 0.3 uM in presence of HCPT by Western blot method; format: functional, cell-based
[22] = molecular target: T1, MAP kinase p38 (Homo sapiens) (UniProt O15264+Q15759+Q16539+P53778); assay: Increase in p38 MAPK phosphorylation in human NCI-H1299 cells at 0.3 uM in presence of HCPT by Western blot method; format: cell-based
NCI-H1299 [23] = assay: Effect on ERK1/2 protein expression in human NCI-H1299 cells at 0.3 uM in presence of HCPT by Western blot method; format: functional, cell-based
Homo sapiens [24] = species on record: Homo sapiens; assay: Decrease in Akt phosphorylation in human NCI-H460 cells at 0.6 uM in presence of CPT by Western blot method; format: cell-based
[25] = molecular target: T2, Mitogen-activated protein kinase; ERK1/ERK2 (Homo sapiens) (UniProt P27361+P28482); assay: Decrease in ERK1/2 phosphorylation in human NCI-H460 cells at 0.6 uM in presence of CPT by Western blot method; format: cell-based
T2 sequence (P27361 whole entry, looked up): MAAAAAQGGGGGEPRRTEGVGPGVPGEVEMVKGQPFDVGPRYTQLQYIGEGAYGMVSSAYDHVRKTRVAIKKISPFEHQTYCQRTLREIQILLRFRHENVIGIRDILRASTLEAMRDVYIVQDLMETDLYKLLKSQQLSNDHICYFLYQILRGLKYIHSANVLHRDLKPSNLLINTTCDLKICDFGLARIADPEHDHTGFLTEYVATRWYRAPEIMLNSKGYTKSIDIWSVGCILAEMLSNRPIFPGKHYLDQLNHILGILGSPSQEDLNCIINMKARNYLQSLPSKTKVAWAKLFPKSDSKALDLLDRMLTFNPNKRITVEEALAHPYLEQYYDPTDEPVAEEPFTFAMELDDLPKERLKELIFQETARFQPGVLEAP
T2 sequence (P28482 whole entry, looked up): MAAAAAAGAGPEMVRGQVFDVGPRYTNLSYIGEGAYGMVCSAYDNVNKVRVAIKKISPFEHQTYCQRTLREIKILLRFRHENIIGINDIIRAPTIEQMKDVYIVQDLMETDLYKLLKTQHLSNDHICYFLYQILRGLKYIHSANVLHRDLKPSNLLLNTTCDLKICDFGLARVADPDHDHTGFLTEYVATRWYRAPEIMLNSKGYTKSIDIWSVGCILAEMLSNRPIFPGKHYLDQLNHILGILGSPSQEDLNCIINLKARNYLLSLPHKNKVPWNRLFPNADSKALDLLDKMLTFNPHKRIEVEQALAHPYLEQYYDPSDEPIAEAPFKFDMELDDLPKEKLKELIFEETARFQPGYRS

[26] = molecular target: T2, Mitogen-activated protein kinase; ERK1/ERK2 (Homo sapiens); assay: Decrease in ERK1/2 phosphorylation in human NCI-H460 cells at 0.6 uM in presence of HCPT by Western blot method; format: cell-based
[27] = molecular target: c-Jun N-terminal kinase, JNK (Homo sapiens) (UniProt P45983+P53779+P45984); assay: Increase in JNK phosphorylation in human NCI-H460 cells at 0.6 uM in presence of HCPT by Western blot method; format: cell-based
Homo sapiens [28] = species on record: Homo sapiens; assay: Effect on Akt phosphorylation in human NCI-H446 cells at 0.6 uM in presence of HCPT by Western blot method; format: cell-based
NCI-H446 [29] = assay: Effect on ERK1/2 protein expression in human NCI-H446 cells at 0.6 uM in presence of HCPT by Western blot method; format: functional, cell-based
NCI-H446 [30] = assay: Effect on ERK1/2 protein expression in human NCI-H446 cells at 0.6 uM in presence of CPT by Western blot method; format: functional, cell-based
[31] = molecular target: T2, Mitogen-activated protein kinase; ERK1/ERK2 (Homo sapiens); assay: Effect on ERK1/2 phosphorylation in human NCI-H446 cells at 0.6 uM in presence of HCPT by Western blot method; format: cell-based
[32] = molecular target: T2, Mitogen-activated protein kinase; ERK1/ERK2 (Homo sapiens); assay: Effect on ERK1/2 phosphorylation in human NCI-H446 cells at 0.6 uM in presence of CPT by Western blot method; format: cell-based
NCI-H446 [33] = assay: Effect on Akt protein expression in human NCI-H446 cells at 0.6 uM in presence of HCPT by Western blot method; format: functional, cell-based
NCI-H446 [34] = assay: Effect on p38 MAPK protein expression in human NCI-H446 cells at 0.6 uM in presence of HCPT by Western blot method; format: functional, cell-based
NCI-H446 [35] = assay: Effect on p38 MAPK protein expression in human NCI-H446 cells at 0.6 uM in presence of CPT by Western blot method; format: functional, cell-based
[36] = molecular target: T1, MAP kinase p38 (Homo sapiens); assay: Effect on p38 MAPK phosphorylation in human NCI-H446 cells at 0.6 uM in presence of HCPT by Western blot method; format: cell-based

## C[C@@H]1CC[C@@]2(OC1)O[C@H]1C[C@H]3[C@@H]4CC=C5C[C@@H](O[C@@H]6O[C@H](CO)[C@@H](O[C@@H]7O[C@@H](CO)[C@H](O)[C@H]7O)[C@H](O)[C@H]6O[C@@H]6O[C@@H](C)[C@H](O)[C@@H](O)[C@H]6O)CC[C@]5(C)[C@H]4CC[C@]3(C)[C@H]1[C@@H]2C
NCI-H520 [1]
  IC50: < 1 µM
NCI-H446 [2]
  IC50: < 1 µM
NCI-H520 [3]
  Activity: Active
NCI-H460 [4]
  CI: <1
NCI-H1299 [5]
  Activity: Active
NCI-H446 [6]
  Activity: Active
NCI-H446 [7]
  fold change (FC): 2
NCI-H460 [8]
  Activity: Active
NCI-H1299 [9]
  Activity: 60%
NCI-H446 [10]
  Activity: Tde
NCI-H460 [11]
  Activity: Tde
NCI-H1299 [12]
  Activity: inactive
NCI-H460 [13]
  Activity: inactive
NCI-H446 [14]
  Activity: Active
NCI-H460 [15]
  Activity: Active
NCI-H460 [16]
  Activity: Active
NCI-H446 [17]
  Activity: Active
NCI-H446 [18]
  Activity: Active
NCI-H446 [19]
  Activity: Active
NCI-H446 [20]
  Activity: Active
NCI-H1299 [21]
  Activity: Active
[22]
  Activity: Active
NCI-H1299 [23]
  Activity: inactive
Homo sapiens [24]
  Activity: Active
[25]
  Activity: Active
[26]
  Activity: Active
[27]
  Activity: Active
Homo sapiens [28]
  Activity: Active
NCI-H446 [29]
  Activity: Active
NCI-H446 [30]
  Activity: Active
[31]
  Activity: Active
[32]
  Activity: Active
NCI-H446 [33]
  Activity: inactive
NCI-H446 [34]
  Activity: inactive
NCI-H446 [35]
  Activity: inactive
[36]
  Activity: inactive

— ChEMBL document CHEMBL4000165, “Chemosensitizing effect of Paris Saponin I on Camptothecin and 10-hydroxycamptothecin in lung cancer cells via p38 MAPK, ERK, and Akt signaling pathways” (Eur J Med Chem, 2017)
